Experimental data: USRE47607E1, “Luciferase signal enhancing compositions” (GENE STREAM PTY LTD, priority 2006, dated 2019)
“Also recorded” adds a separate entry of the source.

Legend:
[1] = system: non-secreted Metridia luciferase; assay: non-secreted Metridia luciferase activity in HeLa cell lysates; type: biochemical; conditions: for light units (% of those obtained using 0.1% NP40): detergent type and concentration varied, 40 or 120 min, FIGS. 14A, 14B; for signal intensity: chelator in lysis buffer without salt, 30 or 120 min lysis, FIGS. 10A, 10B; for increase in activity between 30 and 120 min lysis: salt 150 mM in lysis buffer, % of light units at 30 min lysis, FIG. 26
Description: HeLa cells stably expressing either non-secreted and destabilized Gaussia or non-secreted and destabilized Metridia luciferase were plated onto 96-well plates and incubated overnight. Medium was removed and the cells lysed in 20 ul of lysis buffer per well. The lysis buffer comprised; 25 mM Tris pH 8.1; 0.1% NP40; 63.4 uM Na-Oxalate; 5% Glycerol plus the concentration and type of salt indicated in FIG. 4. Replicate samples were assayed for luciferase activity after 30 minutes following addition of the lysis buffer by injecting 60 ul of assay buffer. The assay buffer comprised 25 mM Tris pH 7.75; 2 mM Ascorbate; 24 uM Cz. Results were expressed as a % of the light units obtained in the absence of salt (see FIG. 4).
Luciferase assays were performed as described in Example 5 with either non-secreted and destabilized Gaussia luciferase or non-secreted and destabilized Metridia luciferase. Two experiments are shown as separate graphs, with results shown as relative luminescence in counts per second (CPS) (see FIGS. 5A and 5B). Within each experiment, the lysis buffer and assay buffer differed only in the amount and type of salt added as indicated. Replicate samples were analysed at 120 min after addition of the lysis buffer (LB) by injecting 60 ul of assay buffer (AB).
Luciferase assays were performed with non-secreted and destabilized Metridia luciferase as described in Example 5, except the lysis buffer contained no salt and but contained the indicated type and concentration of chelators. Replicate luciferase assay were carried out after a 30 or 120 min lysis period. Results from the 30 min time point were expressed as a % of the light units obtained in the absence of chelator (see FIG. 10A) and results from the 120 min time point were expressed as % of the light units obtained with the same lysis buffer at 30 min (see FIG. 10B).
HeLa cells expressing destabilised, non-secreted Gaussia or non-secreted Metridia luciferases were plated in equal aliquots onto 96-well plates and incubated overnight. Medium was removed and the cells lysed in 20 ul of lysis buffer. The detergent type and concentration was varied as indicated. Luciferase assays were carried out by injecting 60 ul of assay buffer comprising 25 mM Tris pH 8.1; 1 mM EDTA, 2 mM Ascorbate; 24 uM Cz Two experiments are shown, in the first the lysis buffer also contained 5% glycerol, 64 uM sodium oxalate, 150 mM NaBr, 25 mM Tris pH 8.5, 5 mM EDTA, 0.6 mM reduced glutathione, 0.4 mM oxidised glutathione, 75 mM urea (v6) and luciferase activity was assayed at 40 min. In the second experiment, the lysis buffer also contained 2 5 mM Tris pH 8.1, 63.4 uM Na-oxalate, 150 mM NaBr, 5% Glycerol and the luciferase activity was assayed at 120 min. Results were expressed as the % of the light units obtained using 0.1% NP40 (see FIGS. 14A and 14B). […]
HeLa cells expressing destabilised, non-secreted Metridia luciferase were plated in equal aliquots onto 96-well plates and incubated overnight.

[2] = system: non-secreted Gaussia luciferase; assay: non-secreted Gaussia luciferase activity in HeLa cell lysates; type: biochemical; conditions: for signal intensity with detergent in lysis buffer: detergent 0.1% in lysis buffer unless otherwise indicated, FIGS. 13A-C; for light units (% of those obtained using 0.1% NP40): detergent type and concentration varied, 40 or 120 min, FIGS. 14A, 14B; for signal intensity: chelator type and concentration varied, 30 min lysis, FIG. 9; for stability of luciferase activity between 20 and 90 min after onset of cell lysis: salt and EDTA in lysis buffer, % of light units at 20 min lysis, FIG. 7; for light output (% of light units obtained in the absence of salt): salt in lysis buffer, assayed 40 min after lysis buffer, FIG. 3
Description: HeLa cells stably expressing non-secreted and destabilized Gaussia luciferase were plated onto 96-well plates and incubated overnight. Medium was removed and the cells lysed in 30 ul of lysis buffer per well. The lysis buffer (LB) comprised; 25 mM Tris pH 7.8; 0.1% NP40; 1 mM EDTA plus NaBr at concentrations of (from left to right) 0 mM, 150 mM, 0 mM and 75 mM. Luciferase activity was assayed by injecting 30 ul of an assay buffer (AB) comprising 25 mM Tris pH 7.8; 40 uM Cz plus NaBr at concentrations of (from left to right) 0 mM, 0 mM, 150 mM and 75 mM. Thus, the final concentration of NaBr was 75 mM in all samples, except the no salt controls. Results were expressed as relative light units (RLU) (See FIG. 2).
HeLa cells stably expressing non-secreted and destabilized Gaussia luciferase were plated onto 96-well plates and incubated overnight. Medium was removed and the cells lysed in 20 ul of lysis buffer per well. The lysis buffer comprised; 25 mM Tris pH 8.1, 1 mM EDTA; 0.1% NP40; 63.4 uM Na-Oxalate; 5% Glycerol plus the concentration and type of salt indicated in FIG. 3. Luciferase activity was assayed at 40 min after addition of the lysis buffer (by injecting 60 ul of an assay buffer comprising 25 mM Tris pH 8.1; 1 mM EDTA, 2 mM Ascorbate; 26 uM Cz. Results were expressed as a % of the light units obtained in the absence of salt (see FIG. 3). […]
Luciferase assays were performed as described in Example 4. All salts were present at 150 mM in lysis buffer.
Luciferase assays were performed as described in Example 7, except using the indicated concentrations of salt and EDTA in the lysis buffer. Replicate samples were assayed for luciferase activity at 20, 30, 40 and 90 min after addition of lysis buffer. Results were expressed as a % of the light units obtained after 20 min lysis in the same lysis buffer (see FIG. 7).
Luciferase assays were performed as described in Example 8, except using lysis buffer containing 150 mM NaBr and the indicated concentration of EDTA. Two experiments are shown as separate graphs, with results shown as relative light units (RLU) (see FIGS. 8A and 8B). Within each experiment, the same assay buffer was used for all samples and the lysis buffer differed only in the amount of EDTA as indicated. Replicate samples were assayed for activity of non-secreted Gaussia luciferase at 30 or 120 min after addition of lysis buffer.
Luciferase assays were performed as described in Example 9, except using the indicated type and concentration of chelator and a 30 min lysis period.
HeLa cells expressing destabilised, non-secreted Gaussia luciferase were plated in equal aliquots onto 96-well plates and incubated overnight. Three experiments are shown as separate graphs (FIGS. 13A, 13B and 13C). Within each experiment, the same assay buffer was used for all samples and the lysis buffer differed only in the type of detergent used (0.1% in lysis buffer unless otherwise indicated).
HeLa cells expressing destabilised, non-secreted Gaussia or non-secreted Metridia luciferases were plated in equal aliquots onto 96-well plates and incubated overnight. Medium was removed and the cells lysed in 20 ul of lysis buffer. The detergent type and concentration was varied as indicated.

Renilla luciferase = Renilla luciferase (Renilla reniformis, UniProt P27652); conditions: EDTA in lysis buffer, 30 min; FIG. 12
Renilla luciferase, sequence (P27652 whole entry): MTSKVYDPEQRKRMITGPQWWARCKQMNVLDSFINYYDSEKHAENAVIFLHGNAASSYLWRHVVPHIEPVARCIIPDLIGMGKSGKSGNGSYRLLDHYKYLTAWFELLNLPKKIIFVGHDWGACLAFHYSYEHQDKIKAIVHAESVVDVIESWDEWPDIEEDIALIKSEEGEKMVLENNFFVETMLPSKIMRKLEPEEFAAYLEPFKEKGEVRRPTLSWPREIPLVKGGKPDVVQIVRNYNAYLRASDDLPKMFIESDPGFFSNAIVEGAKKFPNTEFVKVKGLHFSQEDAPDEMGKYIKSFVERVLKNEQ
Description: (§1) HeLa cells expressing Firefly or Renilla luciferases were plated into 96-well plates and incubated overnight. Medium was removed and the cells lysed in 20 ul of lysis buffer containing 25 mM Tris pH 8.1; 0.1% NP40; 63.4 uM Na-Oxalate; 5% Glycerol, 150 mM NaCl plus the concentration of EDTA in FIG. 12. Replicate samples were assayed for luciferase activity at 30 min by injecting 30 ul of Firefly assay buffer II containing Firefly substrate followed by 30 ul of Promega's “Stop and Glo” buffer containing Renilla substrate. Results are expressed as a % of the light units obtained in the absence of EDTA (see FIG. 12).

Firefly luciferase = Firefly luciferase (Photinus pyralis, UniProt P08659); conditions: EDTA in lysis buffer, 30 min; FIG. 12
Firefly luciferase, sequence (P08659 whole entry): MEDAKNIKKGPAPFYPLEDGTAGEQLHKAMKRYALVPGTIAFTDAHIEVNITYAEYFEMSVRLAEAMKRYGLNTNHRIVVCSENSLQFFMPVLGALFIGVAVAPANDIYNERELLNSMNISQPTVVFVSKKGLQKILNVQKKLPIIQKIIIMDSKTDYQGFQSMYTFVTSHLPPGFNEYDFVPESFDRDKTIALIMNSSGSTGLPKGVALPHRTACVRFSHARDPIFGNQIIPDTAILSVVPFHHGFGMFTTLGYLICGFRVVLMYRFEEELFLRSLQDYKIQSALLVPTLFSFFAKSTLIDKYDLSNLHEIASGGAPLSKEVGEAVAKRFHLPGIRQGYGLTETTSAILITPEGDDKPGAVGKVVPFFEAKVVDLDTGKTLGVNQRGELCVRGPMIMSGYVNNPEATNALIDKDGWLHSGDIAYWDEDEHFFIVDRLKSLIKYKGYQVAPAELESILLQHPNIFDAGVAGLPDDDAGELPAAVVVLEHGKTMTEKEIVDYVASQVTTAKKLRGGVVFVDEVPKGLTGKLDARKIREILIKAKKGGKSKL
Description: as §1

[3] = system: non-secreted Gaussia luciferase; assay: non-secreted Gaussia luciferase activity in HeLa cell lysates; type: biochemical; conditions: 50-100 mM urea in lysis buffer, glutathione in both buffers; FIG. 24
[4] = system: secreted Gaussia luciferase; assay: secreted Gaussia luciferase activity in conditioned medium of transfected HeLa cells; type: biochemical; conditions: salt in assay buffer, 26 uM Cz, pH 8.1; FIG. 1
Description: HeLa cells were transiently transfected with a plasmid expressing native, secreted Gaussia luciferase and 24 hrs later the conditioned medium was collected. Wells of a 96-well plate were loaded with 20 ul of conditioned medium and assayed for luciferase activity by injecting 60 ul of an assay buffer comprising 26 uM Cz; pH 8.1 plus the salt as indicated in FIG. 1. Results were expressed as a % of the light units obtained in the absence of salt (FIG. 1).

CCCCCCCCCCCCOS(=O)(=O)[O-].[Na+] [SDS]
light units (% of those obtained using 0.1% NP40) [1]: blocks enzymatic activity; also recorded: concentration-dependent inhibition on signal intensity. This effect was most evident | signal intensity with detergent in lysis buffer [2]: do not perform well | light units (% of those obtained using 0.1% NP40) [2]: blocks enzymatic activity; also recorded: concentration-dependent inhibition on signal intensity. This effect was most evident

N[C@@H](CCC(=O)N[C@@H](CS)C(=O)NCC(=O)O)C(=O)O [reduced glutathione]
rate at which luciferase acquires maximum activity during cell lysis; signal ([2]; total glutathione and reduced:oxidized ratio varied, 20 or 60 min, FIG. 21): somewhat reduced signal was seen at 60 minutes

O=C(O)CN(CCN(CC(=O)O)CC(=O)O)CC(=O)O [EDTA]
light units (% of those obtained in the absence of EDTA) (Renilla luciferase): does not provide the same beneficial effect on signal intensity | light units (% of those obtained in the absence of EDTA) (Firefly luciferase): clearly decreases the activity of Firefly luciferase | signal intensity [1]: concentration-dependent beneficial effect on signal intensity | increase in activity between 30 and 120 min lysis [1]: performed considerably better | signal intensity [2]: concentration-dependent beneficial effect on signal intensity | signal intensity and stability of signal over time in lysis buffer ([2]; lysis buffer with 150 mM NaBr and varied EDTA, 30 or 120 min, FIGS. 8A, 8B): benefit of higher amounts of EDTA in terms of both signal intensity and the stability of the luciferase signal over time in lysis buffer | stability of luciferase activity between 20 and 90 min after onset of cell lysis [2]: far more stable (and therefore more desirable) level of luciferase activity

NP40
light units (% of those obtained using 0.1% NP40) [1]: highest signal intensity | effect of % NP40 in lysis buffer on signal strength ([2]; FIGS. 16A, 16B): signal strength declined with increasing amounts of detergent | signal intensity with detergent in lysis buffer [2]: highest signal intensity | light units (% of those obtained using 0.1% NP40) [2]: highest signal intensity

NC(N)=O [urea]
increase in signal between 15 and 60 min lysis [3]: increase was less pronounced

[Cl-].[Na+] [NaCl]
increase in activity between 30 and 120 min lysis [1]: more than 1200% | light output (% of light units obtained in the absence of salt) [2]: increased light output compared to no salt

O=C(O)CN(CCOCCOCCN(CC(=O)O)CC(=O)O)CC(=O)O [EGTA]
signal intensity [1]: concentration-dependent beneficial effect on signal intensity | signal intensity [2]: concentration-dependent beneficial effect on signal intensity

C[C@H](CCC(=O)NCCC[N+](C)(C)CCCS(=O)(=O)[O-])[C@H]1CC[C@H]2[C@@H]3[C@H](O)C[C@@H]4C[C@H](O)CC[C@]4(C)[C@H]3C[C@H](O)[C@]12C [CHAPS]
light units (% of those obtained using 0.1% NP40) [1]: insufficient to lyse the cells; also recorded: highest activity for non-secreted Metridia luciferase | signal intensity with detergent in lysis buffer [2]: appeared not to lyse the cells at 0.1% | light units (% of those obtained using 0.1% NP40) [2]: insufficient to lyse the cells

C[C@H](CCC(=O)[O-])[C@H]1CC[C@H]2[C@@H]3CC[C@@H]4C[C@H](O)CC[C@]4(C)[C@H]3C[C@H](O)[C@]12C.[Na+] [DOC]
light units (% of those obtained using 0.1% NP40) [1]: concentration-dependent inhibition on signal intensity. This effect was most evident | signal intensity with detergent in lysis buffer [2]: do not perform well | light units (% of those obtained using 0.1% NP40) [2]: concentration-dependent inhibition on signal intensity. This effect was most evident

CCCCCCCCCCCCCCCC[N+](C)(C)C.[Br-] [CTAB]
effect of cationic detergent on signal intensity ([2]; data not shown, luciferase not specified, stated under Example 15): strong inhibitory effect on signal intensity

O=C(O)CN(CC(=O)O)C1CCCCC1N(CC(=O)O)CC(=O)O (stereo not drawn) [CDTA]
signal intensity [1]: concentration-dependent beneficial effect on signal intensity

[Br-].[Na+] [NaBr, sodium bromide]
increase in activity between 30 and 120 min lysis [1]: performed better than NaCl | light output (% of light units obtained in the absence of salt) ([1]; salt in lysis buffer, assayed 30 min after lysis buffer, FIG. 4): superior enhancement to NaCl | light output (% of light units obtained in the absence of salt) [4]: higher than with either NaCl or no salt | luciferase activity (RLU) ([2]; NaBr in lysis buffer or assay buffer, final 75 mM, FIG. 2): enhances activity of non-secreted Gaussia luciferase, especially when included in lysis buffer | stability of luciferase activity between 20 and 90 min after onset of cell lysis [2]: far more stable (and therefore more desirable) level of luciferase activity | light output (% of light units obtained in the absence of salt) [2]: superior enhancement to NaCl

Triton X100
light units (% of those obtained using 0.1% NP40) [1]: highest signal intensity | light units (% of those obtained using 0.1% NP40) [2]: highest signal intensity
